Earlier results as cited in patent publication USRE39151E1, “Process for the preparation and purification of thiol-containing maytansinoids” (Immunogen, Inc., priority 2000, dated 2006).

Key:
[1] = test system: L1210 cells; settings: L1210 cells treated in vivo; untreated control mitotic index 3.2 to 5.8%
[2] = test system: P388 murine leukemic cell suspensions; settings: in vitro, P388 cell suspension
[3] = test system: L1210 murine leukemic cell suspensions; settings: in vitro, L1210 cell suspension
[4] = test system: LY5178 murine leukemic cell suspensions; settings: in vitro, LY5178 cell suspension
[5] = test system: human nasopharyngeal carcinoma cells
[6] = test system: human acute lymphoblastic leukemia line C.E.M.
[7] = test system: P388 lymphocytic leukemia system; settings: in vivo
[8] = test system: L1210 mouse leukemia system
[9] = test system: Lewis lung carcinoma system
[10] = test system: B-16 melanocarcinoma system
[11] = test system: tubulin; settings: sea urchin eggs and clam eggs
[12] = versus methotrexate, daunorubicin, and vincristine
[13] = patients

SMILES: COc1cc2cc(c1Cl)N(C)C(=O)C[C@H](OC(=O)[C@H](C)N(C)C(C)=O)[C@]1(C)O[C@H]1[C@H](C)[C@@H]1C[C@@](O)(NC(=O)O1)[C@H](OC)/C=C/C=C(\C)C2 [maytansine]
- cells accumulating in mitosis [1]: 67%
- inhibitory dose [2]: 10^−3 to 10^−1 microgram/mL
- inhibitory dose [3]: 10^−3 to 10^−1 microgram/mL
- inhibitory dose [4]: 10^−3 to 10^−1 microgram/mL
- inhibition of in vitro growth [5]: active inhibitor
- inhibitory concentration [6]: ≥ 10^−7 microgram/ml
- dosage range over which tumor growth was inhibited [7]: 50- to 100 fold
- inhibitory activity in vivo [8]: significant inhibitory activity
- inhibitory activity in vivo [9]: significant inhibitory activity
- inhibitory activity in vivo [10]: significant inhibitory activity
- effect on mitosis / microtubule formation [11]: inhibits mitosis by interfering with the formation of microtubules
- fold more cytotoxic than conventional cancer chemotherapeutic agents [12]: 100 to 1000 fold
- adverse effects in clinical trials [13]: associated with peripheral neuropathy that might be cumulative
- outcome of clinical trials [13]: not favorable due to a number of side effects
